Data published in patent US11167059B2, “Compositions with reactive ingredients, and wound dressings, apparatuses, and methods” (KCI Licensing, Inc., priority 2010, dated 2021).

Columns and labels:
Type in all cases: cell-based
MRSA = experiment: Log reduction, single cycle, MRSA; conditions: for ΔLog - MRSA 30 sec.: 30 sec. exposure; for ΔLog - MRSA 5 min.: 5 min. exposure
Protocol: (§1) Referring now to FIG. 17, the experiments described above for FIG. 14 were also performed with additional foams, one foam in which 1 gram of Calcium hypochlorite salt was infused (D100, shown as left column for each cycle), and one foam in which 2 grams of Calcium hypochlorite salt was dispersed (D200, shown as right column for each cycle). […] As discussed additionally below, the minimum concentration is significant because testing identified concentrations of hypochlorite-ion as low as 0.5-0.7 mM to have effective antibacterial and antimicrobial properties. Additional testing was performed to measure the zone of inhibition (ZOI) and Log Reduction of microbes for various samples of released aqueous solutions having various concentrations of hypochlorite ion, as listed in Tables 2 and 3. Table 2 lists ZOI and Log reduction data for a single cycle measured at hold times (exposure duration) of 30 seconds and 5 minutes of bacterial exposure to solution. Table 3 lists ZOI and Log reduction data for multiple cycles (each cycle including introduction of hypochlorite solution, and removal of solution prior to beginning next cycle). In the ZOI experimentation, foam discs having a diameter of 8 millimeters (mm) and a height of 5 mm were each saturated with hypochlorite-ion solution as indicated. Table 3 also lists the initial microbe count in log form (10^X, where X is listed in Table 2), log reduction in microbe count, and ZOI in mm. For the data of Table 3, the initial concentration (1×) of hypochlorite ion in solution was 5.7 mM of hypochlorite ion, which corresponds to 0.041% w/v of Ca(OCl)^2. In the Log reduction experimentation, the microbes were exposed to the respective concentration of solution for 30 seconds per cycle. […] The bold entries in Table 3 are indicative of substantially all microbes being killed. In the biofilm eradication cycles listed in Table 6 below, probes were cultured with microbes and incubated to permit formation of a biofilm on the probe. The probe was then exposed to solutions having various concentrations of Calcium hypochlorite solution for multiple cycles, with each cycle including exposure of the probe to solution for a duration of 5 minutes.

C. alb. = experiment: zone of inhibition (ZOI), foam discs saturated with solution, C. alb.; conditions: 8 mm foam disc saturated with solution
Protocol: as §1

[1] = test system: Pseudomonas aeruginosa ATCC 27853; experiment: Minimum Biofilm Eradication Concentration (MBEC), P. aeruginosa; conditions: Pseudomonas aeruginosa ATCC 27853 biofilm on probe, 5 minutes per cycle, % w/v Ca(OCl)2
Protocol: as §1, with “The probe was then exposed to solutions having various concentrations of Calcium hypochlorite solution for multiple cycles, with each cycle including exposure of the probe to solution for a duration of 5 minutes.” left out

[2] = test system: Staphylococcus aureus USA 400 (MRSA); experiment: Minimum Biofilm Eradication Concentration (MBEC), S. aureus USA 400 (MRSA); conditions: Staphylococcus aureus USA 400 (MRSA) biofilm on probe, 5 minutes per cycle, % w/v Ca(OCl)2
Protocol: as §1, with “The probe was then exposed to solutions having various concentrations of Calcium hypochlorite solution for multiple cycles, with each cycle including exposure of the probe to solution for a duration of 5 minutes.” left out

microbes = experiment: antibacterial and antimicrobial testing of hypochlorite-ion concentrations (summary statements)
Protocol: Referring now to FIG. 17, the experiments described above for FIG. 14 were also performed with additional foams, one foam in which 1 gram of Calcium hypochlorite salt was infused (D100, shown as left column for each cycle), and one foam in which 2 grams of Calcium hypochlorite salt was dispersed (D200, shown as right column for each cycle). […] As discussed additionally below, the minimum concentration is significant because testing identified concentrations of hypochlorite-ion as low as 0.5-0.7 mM to have effective antibacterial and antimicrobial properties. Additional testing was performed to measure the zone of inhibition (ZOI) and Log Reduction of microbes for various samples of released aqueous solutions having various concentrations of hypochlorite ion, as listed in Tables 2 and 3. Table 2 lists ZOI and Log reduction data for a single cycle measured at hold times (exposure duration) of 30 seconds and 5 minutes of bacterial exposure to solution. Table 3 lists ZOI and Log reduction data for multiple cycles (each cycle including introduction of hypochlorite solution, and removal of solution prior to beginning next cycle). In the ZOI experimentation, foam discs having a diameter of 8 millimeters (mm) and a height of 5 mm were each saturated with hypochlorite-ion solution as indicated. […]

## hypochlorite ion [OCl^− Solutions]
MRSA; 0.8 mM HOCl/OCl−
  ΔLog - MRSA 30 sec.: 2.96
  ΔLog - MRSA 5 min.: 2.99
MRSA; 1.9 mM HOCl/OCl−
  ΔLog - MRSA 30 sec.: 2.93
  ΔLog - MRSA 5 min.: 4.09
MRSA; 3.1 mM HOCl/OCl−
  ΔLog - MRSA 30 sec.: 3.55
  ΔLog - MRSA 5 min.: >7.13
MRSA; 4.0 mM HOCl/OCl−
  ΔLog - MRSA 30 sec.: 5.52
  ΔLog - MRSA 5 min.: >7.13
MRSA; 10.7 mM HOCl/OCl−
  ΔLog - MRSA 30 sec.: >6.93
  ΔLog - MRSA 5 min.: >7.13
MRSA; 15.7 mM HOCl/OCl−
  ΔLog - MRSA 30 sec.: >6.93
  ΔLog - MRSA 5 min.: >7.13
C. alb.; 0.8 mM HOCl/OCl−
  ZOI, D in mm C. alb.: 15.0 mm
C. alb.; 1.9 mM HOCl/OCl−
  ZOI, D in mm C. alb.: 24.3 mm
C. alb.; 3.1 mM HOCl/OCl−
  ZOI, D in mm C. alb.: 22.0 mm
C. alb.; 4.0 mM HOCl/OCl−
  ZOI, D in mm C. alb.: 34.3 mm
C. alb.; 10.7 mM HOCl/OCl−
  ZOI, D in mm C. alb.: 45.7 mm
C. alb.; 15.7 mM HOCl/OCl−
  ZOI, D in mm C. alb.: 44.3 mm
[1]; 1 Cycle
  Minimum Biofilm Eradication Concentration (MBEC) 1 Cycle: >0.041% w/v
[1]; 3 Cycles
  Minimum Biofilm Eradication Concentration (MBEC) 3 Cycles: 0.021% w/v
[1]; 5 Cycles
  Minimum Biofilm Eradication Concentration (MBEC) 5 Cycles: 0.041% w/v
[2]; 1 Cycle
  Minimum Biofilm Eradication Concentration (MBEC) 1 Cycle: <0.005% w/v
[2]; 3 Cycles
  Minimum Biofilm Eradication Concentration (MBEC) 3 Cycles: <0.005% w/v
[2]; 5 Cycles
  Minimum Biofilm Eradication Concentration (MBEC) 5 Cycles: <0.005% w/v
microbes
  lowest concentrations identified to have effective antibacterial and antimicrobial properties: 0.5 to 0.7 mM
microbes; five (5) cycles at the lowest concentration (0.7 mM), 30 seconds per cycle
  killing of microbes in Log reduction experimentation: killed substantially all microbes present
